Measured values from PubChem BioAssay AID2060335 (Molecular Pharmacology Branch, DTP, NCI, 2025).

Tested on: DU-145 multicell spheroids with HUVEC/MSC, viability
Assay: Anticancer human tumor DU-145 cell line growth inhibition [IpAb];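 also: spheroids exposed to agents for seven days before measurement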;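 as to viability, T/C: percent of DMSO vehicle control viability so 100% = untreated level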
Details: for IC50: curve of first compound; for viability, T/C: stronger effect = lower value
How it was run: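 Multi-cell spheroids of 60% tumour cells, 25% HUVEC and 15% MSC in ultra-low-attachment U-bottom wells, treated with agents combined with ipatasertib or abemaciclib. Half-log ranges top out near clinical Cmax, or 10 microM when Cmax is unknown.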

[1] = second compound 0.1 µM, first compound 0.0316 µM
[2] = second compound 0.1 µM, first compound 0.1 µM
[3] = second compound 0.1 µM, first compound 0.316 µM
[4] = second compound 0.1 µM, first compound 1 µM
[5] = second compound 0.1 µM, first compound 3.16 µM
[6] = second compound 0.1 µM, first compound 10 µM
[7] = second compound 0.316 µM, first compound 0.0316 µM
[8] = second compound 0.316 µM, first compound 0.1 µM
[9] = second compound 0.316 µM, first compound 0.316 µM
[10] = second compound 0.316 µM, first compound 1 µM
[11] = second compound 0.316 µM, first compound 3.16 µM
[12] = second compound 0.316 µM, first compound 10 µM
[13] = second compound 1 µM, first compound 0.0316 µM
[14] = second compound 1 µM, first compound 0.1 µM
[15] = second compound 1 µM, first compound 0.316 µM
[16] = second compound 1 µM, first compound 1 µM
[17] = second compound 1 µM, first compound 3.16 µM
[18] = second compound 1 µM, first compound 10 µM
[19] = second compound 3.16 µM, first compound 0.0316 µM
[20] = second compound 3.16 µM, first compound 0.1 µM
[21] = second compound 3.16 µM, first compound 0.316 µM
[22] = second compound 3.16 µM, first compound 1 µM
[23] = second compound 3.16 µM, first compound 3.16 µM
[24] = second compound 3.16 µM, first compound 10 µM
[25] = second compound 10 µM, first compound 0.0316 µM
[26] = second compound 10 µM, first compound 0.1 µM
[27] = second compound 10 µM, first compound 0.316 µM
[28] = second compound 10 µM, first compound 1 µM
[29] = second compound 10 µM, first compound 3.16 µM
[30] = second compound 10 µM, first compound 10 µM

SMILES	IC50 (second compound 0.1 µM)	IC50 (second compound 0.316 µM)	IC50 (second compound 1 µM)	IC50 (second compound 3.16 µM)	IC50 (second compound 10 µM)	viability, T/C [1]	viability, T/C [2]	viability, T/C [3]	viability, T/C [4]	viability, T/C [5]	viability, T/C [6]	viability, T/C [7]	viability, T/C [8]	viability, T/C [9]	viability, T/C [13]	viability, T/C [14]	viability, T/C [19]	viability, T/C [20]	viability, T/C [25]	viability, T/C [26]	other results
C=CCn1c(=O)c2cnc(Nc3ccc(N4CCN(C)CC4)cc3)nc2n1-c1cccc(C(C)(C)O)n1 + CC(C)NCC(C(=O)N1CCN(c2ncnc3c2C(C)CC3O)CC1)c1ccc(Cl)cc1	82.7 nM	< 31.6 nM	< 31.6 nM	< 31.6 nM	< 31.6 nM	71%	47.1%	26.5%	23.9%	17.5%	13.7%	44.6%	36.7%	19.3%	32.7%	26.6%	23%	16.1%	16.9%	14%	viability, T/C [10]: 18.8%; viability, T/C [11]: 15.8%; viability, T/C [12]: 12.9%; viability, T/C [15]: 13.3%; viability, T/C [16]: 15.1%; viability, T/C [17]: 14.3%; viability, T/C [18]: 12.6%; viability, T/C [21]: 10%; viability, T/C [22]: 12%; viability, T/C [23]: 11.8%; viability, T/C [24]: 10.4%; viability, T/C [27]: 8.4%; viability, T/C [28]: 10.6%; viability, T/C [29]: 9.3%; viability, T/C [30]: 9.33%
CC(C)n1nc(-c2ccc3oc(N)nc3c2)c2c(N)ncnc21 + CC(C)NCC(C(=O)N1CCN(c2ncnc3c2C(C)CC3O)CC1)c1ccc(Cl)cc1	0.905 nM	< 0.316 nM	< 0.316 nM	< 0.316 nM	< 0.316 nM	12.2%	9.34%					9.74%	7.89%		7.4%	6.44%	6.17%	5.92%	5.82%	5.09%	viability, T/C (second compound 0.1 µM, first compound 0.000316 µM): 64.2%; viability, T/C (second compound 0.1 µM, first compound 0.001 µM): 48.1%; viability, T/C (second compound 0.1 µM, first compound 0.00316 µM): 32.4%; viability, T/C (second compound 0.1 µM, first compound 0.01 µM): 18.1%; viability, T/C (second compound 0.316 µM, first compound 0.000316 µM): 49.2%; viability, T/C (second compound 0.316 µM, first compound 0.001 µM): 32.3%; viability, T/C (second compound 0.316 µM, first compound 0.00316 µM): 22.9%; viability, T/C (second compound 0.316 µM, first compound 0.01 µM): 13.5%; viability, T/C (second compound 1 µM, first compound 0.000316 µM): 29%; viability, T/C (second compound 1 µM, first compound 0.001 µM): 23.1%; viability, T/C (second compound 1 µM, first compound 0.00316 µM): 14%; viability, T/C (second compound 1 µM, first compound 0.01 µM): 8.57%; viability, T/C (second compound 3.16 µM, first compound 0.000316 µM): 18.6%; viability, T/C (second compound 3.16 µM, first compound 0.001 µM): 14.2%; viability, T/C (second compound 3.16 µM, first compound 0.00316 µM): 9.92%; viability, T/C (second compound 3.16 µM, first compound 0.01 µM): 6.7%; viability, T/C (second compound 10 µM, first compound 0.000316 µM): 14.1%; viability, T/C (second compound 10 µM, first compound 0.001 µM): 14.2%; viability, T/C (second compound 10 µM, first compound 0.00316 µM): 7.9%; viability, T/C (second compound 10 µM, first compound 0.01 µM): 6.04%
Cn1ncc(Cl)c1-c1cc(C(=O)NC(CN)Cc2cccc(F)c2)sc1Cl (stereo not given) + CC(C)NCC(C(=O)N1CCN(c2ncnc3c2C(C)CC3O)CC1)c1ccc(Cl)cc1	142 nM	< 31.6 nM	< 31.6 nM	< 31.6 nM	< 31.6 nM	72.8%	56.3%	35.3%	24.7%	17%	0.42%	46.1%	41.2%	33.6%	30%	32.6%	22%	24.4%	19.4%	19.7%	viability, T/C [10]: 24%; viability, T/C [11]: 16.4%; viability, T/C [12]: 1.33%; viability, T/C [15]: 28%; viability, T/C [16]: 24.2%; viability, T/C [17]: 15.8%; viability, T/C [18]: 0.93%; viability, T/C [21]: 21.7%; viability, T/C [22]: 19.6%; viability, T/C [23]: 18.7%; viability, T/C [24]: 0.86%; viability, T/C [27]: 19.7%; viability, T/C [28]: 18.5%; viability, T/C [29]: 15.8%; viability, T/C [30]: 0.27%
